# In ChEMBL document CHEMBL5365481, “Design, Synthesis, and Activity Evaluation of Novel Dual-Target Inhibitors with Antifungal and Immunoregulatory Properties” (J Med Chem, 2023):
# Activity calls are given as the source filed them. The calls are words filed in the database; no cut-off is given here.
# What was measured:
# [1] = system: Candida albicans; test: Antifungal activity against Candida albicans ATCC SC5314 assessed as inhibition of fungal growth incubated for 72 hrs by CLSI based liquid medium microdilution method; format: functional
# [2] = system: Cryptococcus neoformans; test: Antifungal activity against Cryptococcus neoformans ZKCC 2209 assessed as inhibition of fungal growth incubated for 72 hrs by CLSI based liquid medium microdilution method; format: functional
# [3] = system: Pichia kudriavzevii; test: Antifungal activity against Candida krusei ATCC 6258 assessed as inhibition of fungal growth incubated for 72 hrs by CLSI based liquid medium microdilution method; format: functional
# [4] = system: Candida tropicalis; test: Antifungal activity against Candida tropicalis ATCC 1369 assessed as inhibition of fungal growth incubated for 72 hrs by CLSI based liquid medium microdilution method; format: functional
# [5] = system: Aspergillus fumigatus; test: Antifungal activity against Aspergillus fumigatus KM8001 assessed as inhibition of fungal growth incubated for 72 hrs by CLSI based liquid medium microdilution method; format: functional
# [6] = system: Candida albicans; test: Antifungal activity against fluconazole-resistant Candida albicans CaR assessed as inhibition of fungal growth incubated for 72 hrs by CLSI based liquid medium microdilution method; format: functional
# [7] = system: Candida albicans; test: Antifungal activity against fluconazole-resistant Candida albicans 17# assessed as inhibition of fungal growth incubated for 72 hrs by CLSI based liquid medium microdilution method; format: functional
# [8] = system: Candida albicans; test: Antifungal activity against fluconazole-resistant Candida albicans 632 assessed as inhibition of fungal growth incubated for 72 hrs by CLSI based liquid medium microdilution method; format: functional
# [9] = system: Candida albicans; test: Antifungal activity against fluconazole-resistant Candida albicans 901 assessed as inhibition of fungal growth incubated for 72 hrs by CLSI based liquid medium microdilution method; format: functional
# [10] = system: Candida albicans; test: Antifungal activity against fluconazole-resistant Candida albicans 904 assessed as inhibition of fungal growth incubated for 72 hrs by CLSI based liquid medium microdilution method; format: functional
# [11] = biological target: Programmed cell death protein 1/Programmed cell death 1 ligand 1 (Homo sapiens, UniProt Q9NZQ7); test: Inhibition of PD-1/PD-L1 interaction (unknown origin) incubated for 15 mins by ELISA; format: protein-complex assay
# [12] = biological target: T1, Lanosterol 14-alpha demethylase (Candida albicans (strain SC5314 / ATCC MYA-2876) (Yeast), UniProt P10613); test: Inhibition of Candida albicans ATCC SC5314 CYP51 using lanosterol as substrate incubated for 30 mins by HPLC assay
# [13] = biological target: Programmed cell death 1 ligand 1 (Homo sapiens, UniProt Q9NZQ7); test: Binding affinity to PD-L1 (unknown origin) assessed as dissociation constant by SPR analysis
# [14] = biological target: T1, Lanosterol 14-alpha demethylase; test: Inhibition of Candida albicans ATCC SC5314 CYP51 assessed as ergosterol content at 4 ug/ml measured after 16 hrs by GC-MS analysis (reference value: 92.71%); parameters: scale not given: the % may be the effect or the level left; settings: at 4 µg/mL
# [15] = biological target: T1, Lanosterol 14-alpha demethylase; test: Inhibition of Candida albicans ATCC SC5314 CYP51 assessed as lanosterol content at 4 ug/ml measured after 16 hrs by GC-MS analysis relative to control; parameters: scale not given: the % may be the effect or the level left; settings: at 4 µg/mL
# [16] = biological target: T1, Lanosterol 14-alpha demethylase; test: Inhibition of Candida albicans ATCC SC5314 CYP51 assessed as eburicol content at 4 ug/ml measured after 16 hrs by GC-MS analysis (Rvb= 3.47%); parameters: scale not given: the % may be the effect or the level left; settings: at 4 µg/mL
# [17] = biological target: T1, Lanosterol 14-alpha demethylase; test: Inhibition of Candida albicans ATCC SC5314 CYP51 assessed as other unknown sterol content at 4 ug/ml measured after 16 hrs by GC-MS analysis (Rvb= 3.82%); parameters: scale not given: the % may be the effect or the level left; settings: at 4 µg/mL
# [18] = system: Candida albicans; test: Antifungal activity against Candida albicans ATCC SC5314 assessed as decrease in fungal cell density at 1 microM/ml incubated for 48 hrs by absorbance based assay; format: functional, organism-based
# [19] = system: Candida albicans; test: Antifungal activity against Candida albicans ATCC SC5314 assessed as change in osmotic pressure at 1 microM/ml incubated for 48 hrs by absorbance based assay; format: functional, organism-based
# [20] = system: Candida albicans; test: Antifungal activity against Candida albicans ATCC SC5314 assessed as change in structural stability at 1 microM/ml incubated for 48 hrs by absorbance based assay; format: functional, organism-based
# [21] = system: Candida albicans; test: Induction of ROS generation in Candida albicans ATCC SC5314 assessed as increase in fluorescence intensity at 1 microM/ml incubated for 48 hrs by fluorescent microscopy; format: functional, organism-based
# [22] = system: Candida albicans; test: Induction of mitochondrial membrane depolarization in Candida albicans ATCC SC5314 assessed as polarized cells at 1 microM/ml incubated for 24 hrs by JC-1 staining based flow cytometry assay (reference value: 0.28 +/- 0.02%); format: functional
# [23] = system: Candida albicans; test: Induction of mitochondrial membrane depolarization in Candida albicans ATCC SC5314 assessed as normal cells at 1 microM/ml incubated for 24 hrs by JC-1 staining based flow cytometry assay (reference value: 94.4 +/- 1.15%); format: functional
# [24] = system: Candida albicans; test: Induction of mitochondrial membrane depolarization in Candida albicans ATCC SC5314 assessed as depolarized cells at 1 microM/ml incubated for 24 hrs by JC-1 staining based flow cytometry assay (reference value: 0.3 to 5.1%); format: functional
# [25] = system: Candida albicans; test: Induction of apoptosis in Candida albicans ATCC SC5314 assessed as increase in blue fluorescence intensity at 1 microM/ml incubated for 48 hrs by Hoechst 33258/PI staining based fluorescence microscopy; format: functional, organism-based
# [26] = system: Candida albicans; test: Induction of apoptosis in Candida albicans ATCC SC5314 assessed as normal cells at 1 microM/ml incubated for 48 hrs by Hoechst 33258/PI staining based flow cytometry (Rvb= 94.8 +/- 0.3%); format: functional
# [27] = system: Candida albicans; test: Induction of apoptosis in Candida albicans ATCC SC5314 assessed as early apoptotic cells at 1 microM/ml incubated for 48 hrs by Hoechst 33258/PI staining based flow cytometry (Rvb= 5.1 +/- 0.3%); format: functional
# [28] = system: Candida albicans; test: Induction of apoptosis in Candida albicans ATCC SC5314 assessed as late apoptotic cells at 1 microM/ml incubated for 48 hrs by Hoechst 33258/PI staining based flow cytometry (Rvb= 0.05 +/- 0.01%); format: functional
# [29] = system: Candida albicans; test: Induction of apoptosis in Candida albicans ATCC SC5314 assessed as necrotic cells at 1 microM/ml incubated for 48 hrs by Hoechst 33258/PI staining based flow cytometry (Rvb= 0.03 +/- 0.01%); format: functional
# [30] = system: Candida albicans; test: In vivo antifungal activity against Candida albicans ATCC SC5314 infected in BALB/c mouse assessed as decrease in COX2 expression level at 10 ug, ip for 14 days by Western blot analysis; format: functional, organism-based; settings: dose 10.0 µg, time 14.0 day
# [31] = system: Candida albicans; test: In vivo antifungal activity against Candida albicans ATCC SC5314 infected in BALB/c mouse assessed as decrease in NLRP3 expression level at 10 ug, ip for 14 days by Western blot analysis; format: functional, organism-based; settings: dose 10.0 µg, time 14.0 day
# [32] = system: Candida albicans; test: In vivo antifungal activity against Candida albicans ATCC SC5314 infected in BALB/c mouse assessed as decrease in IFN-gamma expression level at 10 ug, ip for 14 days by Western blot analysis; format: functional, organism-based; settings: dose 10.0 µg, time 14.0 day
# [33] = system: Candida albicans; test: In vivo antifungal activity against Candida albicans ATCC SC5314 infected in BALB/c mouse assessed as decrease in PD-L1 expression level at 10 ug, ip for 14 days by Western blot analysis; format: functional, organism-based; settings: dose 10.0 µg, time 14.0 day
# T1 sequence (P10613 whole entry): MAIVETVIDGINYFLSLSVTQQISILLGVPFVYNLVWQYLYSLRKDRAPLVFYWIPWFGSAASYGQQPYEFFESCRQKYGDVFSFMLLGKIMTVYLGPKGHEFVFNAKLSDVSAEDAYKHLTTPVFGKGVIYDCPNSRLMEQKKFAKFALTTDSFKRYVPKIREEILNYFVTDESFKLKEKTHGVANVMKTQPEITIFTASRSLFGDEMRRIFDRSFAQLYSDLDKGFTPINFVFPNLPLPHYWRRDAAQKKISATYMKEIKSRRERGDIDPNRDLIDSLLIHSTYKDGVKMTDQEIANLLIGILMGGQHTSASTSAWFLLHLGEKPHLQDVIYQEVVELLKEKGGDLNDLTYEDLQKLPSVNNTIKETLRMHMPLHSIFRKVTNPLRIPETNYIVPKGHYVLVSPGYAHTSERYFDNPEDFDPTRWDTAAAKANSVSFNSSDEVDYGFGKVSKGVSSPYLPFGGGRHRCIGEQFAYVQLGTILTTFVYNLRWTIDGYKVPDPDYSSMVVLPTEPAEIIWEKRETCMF
# Programmed cell death protein 1/Programmed cell death 1 ligand 1, sequence (Q15116 whole entry): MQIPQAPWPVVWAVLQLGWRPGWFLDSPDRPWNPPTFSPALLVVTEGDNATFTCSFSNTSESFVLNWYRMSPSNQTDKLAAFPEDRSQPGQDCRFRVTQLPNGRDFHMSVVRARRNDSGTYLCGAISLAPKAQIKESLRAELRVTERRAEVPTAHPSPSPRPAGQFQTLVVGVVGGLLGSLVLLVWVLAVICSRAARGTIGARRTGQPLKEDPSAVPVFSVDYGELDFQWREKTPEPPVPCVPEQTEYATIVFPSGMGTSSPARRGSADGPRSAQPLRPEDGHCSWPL
# Programmed cell death protein 1/Programmed cell death 1 ligand 1, sequence (Q9NZQ7 whole entry): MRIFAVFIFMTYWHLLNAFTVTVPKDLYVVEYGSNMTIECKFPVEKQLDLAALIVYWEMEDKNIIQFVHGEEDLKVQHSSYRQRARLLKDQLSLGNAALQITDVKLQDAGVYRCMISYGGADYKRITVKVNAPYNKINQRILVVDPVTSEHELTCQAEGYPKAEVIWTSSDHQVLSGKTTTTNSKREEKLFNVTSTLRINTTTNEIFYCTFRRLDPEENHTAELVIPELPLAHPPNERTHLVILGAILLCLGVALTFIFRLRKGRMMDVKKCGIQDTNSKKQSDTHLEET
# Programmed cell death 1 ligand 1, sequence (Q9NZQ7 whole entry): as above
structure (smiles),measurement,setting,value
CC(=O)c1ccc(NC(=O)c2nc(-n3cncn3)c3ccccc3n2)cc1,MIC50,[1],0.5 µg/mL
same,MIC50,[2],0.5 µg/mL
same,MIC50,[3],1 µg/mL
same,MIC50,[4],0.5 µg/mL
same,MIC50,[5],2 µg/mL
CC(=O)N1CCN(c2ccc(OCC3COC(Cn4ccnc4)(c4ccc(Cl)cc4Cl)O3)cc2)CC1 (stereo not drawn) [KETOCONAZOLE],MIC50,[1],2 µg/mL
same,MIC50,[2],1 µg/mL
same,MIC50,[3],1 µg/mL
same,MIC50,[4],0.5 µg/mL
same,MIC50,[5],4 µg/mL
same,MIC50,[6],4 µg/mL
same,MIC50,[7],2 µg/mL
same,MIC50,[8],> 8 µg/mL
same,MIC50,[9],4 µg/mL
same,MIC50,[10],> 8 µg/mL
O=C(NC1CCCc2ccccc21)c1nc(-n2ccnc2)c2ccccc2n1 (stereo not drawn),MIC50,[1],4 µg/mL
same,MIC50,[2],2 µg/mL
same,MIC50,[3],2 µg/mL
same,MIC50,[4],4 µg/mL
same,MIC50,[5],4 µg/mL
CC(=O)c1ccc(NC(=O)c2nc(-n3ccnc3)c3ccccc3n2)cc1,MIC50,[1],0.5 µg/mL
same,MIC50,[2],1 µg/mL
same,MIC50,[3],1 µg/mL
same,MIC50,[4],1 µg/mL
same,MIC50,[5],2 µg/mL
same,MIC50,[6],4 µg/mL
same,MIC50,[7],2 µg/mL
same,MIC50,[8],2 µg/mL
same,MIC50,[9],> 8 µg/mL
same,MIC50,[10],4 µg/mL
same,IC50,[11],83 nM
same,IC50,[12],884 nM
same,Kd,[13],34.5 nM
same,Activity,[14],21.53%
same,Activity,[15],20.64%
same,Activity,[16],41.69%
same,Activity,[17],6.14%
same,Activity,[18],Active
same,Activity,[19],Active
same,Activity,[20],Active
same,Activity,[21],Active
same,Activity,[22],0.07%
same,Activity,[23],77.1%
same,Activity,[24],0.16%
same,Activity,[25],Active
same,Activity,[26],55.1%
same,Activity,[27],44.8%
same,Activity,[28],0.13%
same,Activity,[29],0.03%
same,Activity,[30],Active
same,Activity,[31],Active
same,Activity,[32],Active
same,Activity,[33],Active
CS(=O)(=O)c1ccc(NC(=O)c2nc(-n3cncn3)c3ccccc3n2)cc1,MIC50,[1],1 µg/mL
same,MIC50,[2],2 µg/mL
same,MIC50,[3],2 µg/mL
same,MIC50,[4],2 µg/mL
same,MIC50,[5],4 µg/mL
COc1ccc(C(=O)N2CCC(NC(=O)c3nc(-n4cncn4)c4ccccc4n3)CC2)cc1,MIC50,[1],0.5 µg/mL
same,MIC50,[2],1 µg/mL
same,MIC50,[3],0.5 µg/mL
same,MIC50,[4],0.5 µg/mL
same,MIC50,[5],2 µg/mL
